Experimental findings from PubChem BioAssay AID624167 (Sanford-Burnham Center for Chemical Genomics, 2012) are described below.

SMILES strings stand for the structures. Calls of active or inactive are those of the source.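 The calls were made as follows: active = mean IC50 for reducing PEG3 promoter reporter signal at or below a set limit, with IC50 above the limit in both counter screens; inactive = the rest, including counter screen hits.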

Assay [1] can be described thus: inhibition of PEG-3 promoter-driven reporter – cell-based, HeLa, luciferase, CREF/GAPDH counter-screen panel, dose response (AID 624167). The settings on record: CREF/GAPDH counter-screens; GAPDH; mean of runs. Background: Counterscreens check selectivity or assay interference.
A further assay concerns GAPDH. Described as above. The settings on record: CREF/GAPDH counter-screens.
Assay [2] concerns the target PEG-3 (UniProt Q6IN02). The description is as above. The following applies: HeLa PEG-Prom luciferase reporter, overnight, CREF/GAPDH counter-screens, mean of runs. (In a reporter assay the amount or activity of a reporter protein is the signal.)
The subject of assay [3] is PEG-3. The assay is described as above. The following applies: HeLa PEG-Prom luciferase reporter, overnight, CREF/GAPDH counter-screens.
Another assay concerns Rat fibroblasts (CREF). The description is as above. The following applies: CREF/GAPDH counter-screens.
[4] abbreviates: run 1, dose range 1, individual replicate IC50 per panel.
Setting [5] is: run 2, dose range 1, individual replicate IC50 per panel.

Chain of PEG-3 (UniProt Q6IN02) (Q6IN02 whole entry, looked up): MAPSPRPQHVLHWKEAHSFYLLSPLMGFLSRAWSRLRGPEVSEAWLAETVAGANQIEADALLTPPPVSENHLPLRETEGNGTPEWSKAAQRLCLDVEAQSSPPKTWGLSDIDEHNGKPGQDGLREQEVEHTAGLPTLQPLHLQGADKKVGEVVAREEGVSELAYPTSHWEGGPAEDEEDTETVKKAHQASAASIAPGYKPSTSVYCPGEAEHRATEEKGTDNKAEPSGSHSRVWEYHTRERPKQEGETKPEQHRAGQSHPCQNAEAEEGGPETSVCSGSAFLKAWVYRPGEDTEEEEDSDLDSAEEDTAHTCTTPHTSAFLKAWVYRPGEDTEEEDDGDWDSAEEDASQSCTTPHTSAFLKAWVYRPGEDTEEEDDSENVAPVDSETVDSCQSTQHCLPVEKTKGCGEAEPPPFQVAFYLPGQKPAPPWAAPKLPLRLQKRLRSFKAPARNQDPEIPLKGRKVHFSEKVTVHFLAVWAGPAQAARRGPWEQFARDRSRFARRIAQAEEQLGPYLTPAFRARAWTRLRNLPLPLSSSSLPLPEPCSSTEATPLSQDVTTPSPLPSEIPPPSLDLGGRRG

Usually IC50 stands for the concentration at which inhibition is half-maximal. Consider `Cc1ccsc1/C=N/Nc1cccc(C(=O)O)c1`, for which the IC50 in assay [1] was 5.35 µM; in the assay with GAPDH (setting [4]), 3.26 µM; with GAPDH (setting [5]), 7.43 µM; at PEG-3 [2], 1.6 µM; in the assay with PEG-3 [3] (setting [4]), 1.27 µM; in the assay with PEG-3 [3] (setting [5]), 1.92 µM. Besides, the IC50 in the assay on Rat fibroblasts (CREF) (mean of runs) was > 100 µM (inactive); in the assay with Rat fibroblasts (CREF) (setting [4]) it was over 100 µM; in the assay on Rat fibroblasts (CREF) (setting [5]), over 100 µM.
With `CCc1ccn2cc(-c3ccc4c(c3)OCO4)nc2c1`, the IC50 in assay [1] is 6.32 µM; in the assay with GAPDH (setting [4]), 3.75 µM; in the assay with GAPDH (setting [5]), 8.89 µM; at PEG-3 [2], 7.2 µM; in the assay with PEG-3 [3] (setting [4]), 1.97 µM; in the assay on PEG-3 [3] (setting [5]) it was 12.4 µM. Further, the IC50 in the assay with Rat fibroblasts (CREF) (mean of runs) was 50.4 µM (inactive); in the assay on Rat fibroblasts (CREF) (setting [4]), 0.748 µM; with Rat fibroblasts (CREF) (setting [5]), over 100 µM.
Take `Cc1ccc(/C=C2\SC(=S)N(CCCC(=O)Nc3ccccn3)C2=O)cc1`: the IC50 was 12.8 µM in assay [1]; 17.7 µM in the assay on GAPDH (setting [4]); 7.78 µM in the assay with GAPDH (setting [5]); 1.9 µM on PEG-3 [2]; 1.33 µM in the assay with PEG-3 [3] (setting [4]); 2.48 µM in the assay with PEG-3 [3] (setting [5]). In addition, the values for the IC50 with Rat fibroblasts (CREF) (mean of runs), with Rat fibroblasts (CREF) (setting [4]) and in the assay on Rat fibroblasts (CREF) (setting [5]) were > 100 µM (inactive), over 100 µM and over 100 µM, respectively.
As for `COc1ccc2c(c1)c(=Cc1ccc(N(C)C)cc1)c1cc(-c3ccccc3)[n+](C)n12`, the IC50 in assay [1] is 7.04 µM; in the assay with GAPDH (setting [4]) it was 6.61 µM; in the assay on GAPDH (setting [5]), 7.46 µM; at PEG-3 [2], 2.27 µM; in the assay with PEG-3 [3] (setting [4]), 3.17 µM; in the assay with PEG-3 [3] (setting [5]), 1.37 µM. Further, the 50% inhibitory concentration (IC50) is 26.9 µM in the assay with Rat fibroblasts (CREF) (mean of runs), 24.8 µM with Rat fibroblasts (CREF) (setting [4]) and 29.1 µM with Rat fibroblasts (CREF) (setting [5]).
Consider `CCC(C)Cn1c(O)cc2nn(-c3nc4ccccc4s3)c(=O)c-2c1C` (centres undefined), for which the IC50 is 2.79 µM in assay [1]; 3.06 µM with GAPDH (setting [4]); 2.52 µM in the assay on GAPDH (setting [5]); 3 µM at PEG-3 [2]; 5.8 µM in the assay with PEG-3 [3] (setting [4]); under 0.2 µM in the assay with PEG-3 [3] (setting [5]). The IC50 in the assay with Rat fibroblasts (CREF) (mean of runs) was 65.6 µM (inactive); with Rat fibroblasts (CREF) (setting [4]), 72.2 µM; in the assay with Rat fibroblasts (CREF) (setting [5]) it was 58.9 µM.
On to `COc1cc(C(=O)N/N=C(\c2ccccc2)c2ccccn2)cc(OC)c1OC`, for which the IC50 in assay [1] is > 100 µM (inactive); in the assay on GAPDH (setting [4]) it was over 100 µM; in the assay with GAPDH (setting [5]) it was over 100 µM; at PEG-3 [2], 2.9 µM; in the assay with PEG-3 [3] (setting [4]) it was 3.09 µM; in the assay on PEG-3 [3] (setting [5]) it was 2.71 µM. In addition, the IC50 is 58.4 µM (inactive) with Rat fibroblasts (CREF) (mean of runs), 44.9 µM with Rat fibroblasts (CREF) (setting [4]) and 72 µM in the assay on Rat fibroblasts (CREF) (setting [5]).
For the compound `COC(COC(N)=O)C1=C(N2CC2)C(=O)C(C)=C(N2CC2)C1=O` (centres undefined), the IC50 in assay [1] is 15 µM; in the assay with GAPDH (setting [4]) it was 10.2 µM; with GAPDH (setting [5]) it was 19.8 µM; on PEG-3 [2], 0.938 µM; in the assay with PEG-3 [3] (setting [4]), 1.29 µM; in the assay on PEG-3 [3] (setting [5]) it was 0.583 µM. In addition, the IC50 was 4.51 µM in the assay on Rat fibroblasts (CREF) (mean of runs), 8.05 µM with Rat fibroblasts (CREF) (setting [4]) and 0.958 µM with Rat fibroblasts (CREF) (setting [5]).
Turning to `CCC(=O)NC(c1ccc(C)cc1)c1ccc2cccnc2c1O` (centres undefined), the IC50 entry (in assay [1]; at PEG-3 [2]) was “inactive” each time. For the same compound, the 50% inhibitory concentration (IC50) with GAPDH (setting [4]) is 46.6 µM; in the assay with GAPDH (setting [5]), over 100 µM; with PEG-3 [3] (setting [4]) it was 1.31 µM; with PEG-3 [3] (setting [5]), over 100 µM; with Rat fibroblasts (CREF) (mean of runs) it was > 100 µM (inactive); in the assay on Rat fibroblasts (CREF) (setting [4]) it was over 100 µM. The compound further displayed an IC50 in the assay on Rat fibroblasts (CREF) (setting [5]) of over 100 µM.
For `O=C(O)c1ccc(N/N=C/c2ccc(OC(=O)c3cccc(Cl)c3)cc2)cc1`, the IC50 is 3.23 µM in assay [1]; 0.554 µM in the assay on GAPDH (setting [4]); 5.92 µM with GAPDH (setting [5]); 9.61 µM on PEG-3 [2]; 6.27 µM in the assay on PEG-3 [3] (setting [4]); 12.9 µM in the assay with PEG-3 [3] (setting [5]). Moreover, the IC50 with Rat fibroblasts (CREF) (mean of runs) is > 100 µM (inactive); in the assay on Rat fibroblasts (CREF) (setting [4]), over 100 µM; with Rat fibroblasts (CREF) (setting [5]) it was over 100 µM.
Regarding `Cc1cc(C(=O)Nc2cccc(C(=O)O)c2)oc1C`, the IC50 in assay [1] is 11.3 µM; in the assay with GAPDH (setting [4]), 6.56 µM; with GAPDH (setting [5]) it was 16 µM; on PEG-3 [2], 9.01 µM; in the assay with PEG-3 [3] (setting [4]), 6.77 µM; with PEG-3 [3] (setting [5]), 11.2 µM. In addition, the IC50 in the assay with Rat fibroblasts (CREF) (mean of runs) is > 100 µM (inactive); with Rat fibroblasts (CREF) (setting [4]) it was over 100 µM; in the assay on Rat fibroblasts (CREF) (setting [5]), over 100 µM.
For `COc1ccc(C(NC(C)=O)c2ccc3cccnc3c2O)c(OC)c1` (centres undefined), the IC50 in assay [1] is > 100 µM (inactive); in the assay with GAPDH (setting [4]), over 100 µM; in the assay with GAPDH (setting [5]), over 100 µM; on PEG-3 [2], 5.33 µM; with PEG-3 [3] (setting [4]), 3.68 µM; in the assay with PEG-3 [3] (setting [5]), 6.97 µM. Further, the figures for the IC50 in the assay with Rat fibroblasts (CREF) (mean of runs), with Rat fibroblasts (CREF) (setting [4]) and with Rat fibroblasts (CREF) (setting [5]) were 51.8 µM (inactive), 3.55 µM and over 100 µM, respectively.
